Laboratory results from patent publication US20240050727A1, “DEVICES FOR FORMING IN SITU MICRONEEDLES AND METHODS THEREOF” (University of Connecticut, priority 2022, published 2024).
“Also recorded” adds a separate entry of the source.

Tested on: C. albicans
Test: Antifungal activity in 3D culture model (C. albicans 3D fungal biofilms in CHROMagar)
Type: cell-based
Details: for superficial regrowth of preformed fungal biofilm: t=48 h preformed biofilm, monitored for 48 hr
Protocol: Antifungal activity. The antifungal activity was performed using an in-lab developed 3D culture model. C. Albicans was seeded at a density of 10^7 cells/mL and cultured for 48 h on CHROMagar. The 3D culture gels were treated with PBS and Caspofungin either topically or using the in-situ microneedle device and methodology. Samples were cut for in-depth imaging after 48 h of treatment and fungal inhibition was evaluated. Experiments were performed to assess the feasibility of the disclosed device in the treatment of infection. 10^6 cells/ml of C. albicans were inoculated in liquid CHROMagar™ and allowed to form 3D fungal biofilms. PBS or 32 μg/ml of Caspofungin (CPF) was applied topically and via a microneedling device immediately after the agar solidified (t=0 h) or 48 h after biofilm growth (t=48 h). The growth and distribution of C. albicans was monitored for 48 hr.

In the case of `CC[C@H](C)C[C@H](C)CCCCCCCCC(=O)N[C@H]1C[C@@H](O)[C@@H](NCCN)NC(=O)[C@@H]2[C@@H](O)CCN2C(=O)[C@H]([C@H](O)CCN)NC(=O)[C@H]([C@H](O)[C@@H](O)c2ccc(O)cc2)NC(=O)[C@@H]2C[C@@H](O)CN2C(=O)[C@H]([C@@H](C)O)NC1=O` [CPF, Caspofungin], the “3D growth of fungal biofilm (fluorescence images of slices)” value (32 μg/ml CPF administered by drop) is reported as “reduced the 3D growth”, the “3D growth of fungal biofilm (fluorescence images of slices)” value (32 μg/ml CPF administered by microneedle system) is reported as “reduced the 3D growth” and the “superficial regrowth of preformed fungal biofilm” value (32 μg/ml CPF applied topically via drop) is reported as “not able to regrow on the surface; also recorded: prevention of superficial growth”. For the same compound, the “superficial regrowth of preformed fungal biofilm” value (32 μg/ml CPF applied via microneedle system) was “not able to regrow on the surface; also recorded: prevention of superficial growth”, the “fungal biofilm 3D growth at t=48 h” value (32 μg/ml CPF, microneedling system vs drop, applied 48 h after biofilm growth) was “effective in reducing the fungal biofilm growth only when administered via the microneedling system; also recorded: reduced only when CPF was administered via microneedles” and the “overall biofilm thickness and biofilm growth at depth (calcofluor fluorescence signal)” value (CPF, microneedle delivery) was “reduces the overall biofilm thickness and biofilm growth at depths lower than 1 mm”.
